Data published in patent EP4707280A1, “1,4-CINEOLE DERIVATIVE AND INTERMEDIATE THEREOF, HERBICIDE CONTAINING SAID DERIVATIVE AS ACTIVE INGREDIENT, METHOD FOR USING HERBICIDE, AND METHOD FOR PREPARING AGROCHEMICAL COMPOSITION” (HOKKO CHEMICAL INDUSTRY CO., LTD., priority 2023, dated 2024).

Key:
Assay type in all cases: in vivo
Scirpus juncoides [1] = experiment: Test Example 2: herbicidal effect test by application during growth period of paddy rice; conditions: 120 g per 10 ares, applied seven days after sowing, flooded pots, 14 days after application; for inhibition at 1200 g/ha: Schoenoplectiella juncoides, read-out: weed inhibition rate
Procedure, shortened: (§1)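 Steps: puddle fertilized paddy soil; sow 30 seeds of each weed at 0–1 cm; flood to roughly 3 cm and keep in a glasshouse; at day 7 drop in diluted emulsifiable concentrate (120 g a.i. per 10 ares); score inhibition (%) 14 days later, two replicates.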

[2] = system: Echinochloa crus-galli var. formosensis; experiment: as above; conditions: 120 g per 10 ares, applied seven days after sowing, flooded pots, 14 days after application; for inhibition at 1200 g/ha: Echinochloa crus-galli, read-out: weed inhibition rate
Procedure, shortened: as §1

[3] = system: Echinochloa crus-galli var. formosensis; experiment: Test Example 6: herbicidal effect test by application during growth period of paddy rice (low dose); conditions: 7.5 g per 10 ares, applied seven days after sowing, flooded pots, 14 days after application; for inhibition at 75 g/ha: Echinochloa crus-galli, read-out: weed inhibition rate
Procedure, shortened: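 Puddled, fertilised paddy soil was sown with 30 seeds per species and flooded to about 3 cm. After 7 days in a glass greenhouse, the diluted emulsifiable concentrate went into the water by dropper at 7.5 g/10 a. Effect scored at 14 days.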

Echinochloa crus-galli [4] = experiment: Test Example 8: herbicidal effect test by stem and leaf treatment in upland field (low dose); conditions: 7.5 g per 10 ares, sprayed seven days after sowing, upland soil, 14 days after application; for inhibition at 75 g/ha: Echinochloa crus-galli, read-out: weed inhibition rate
Digitaria ciliaris [5] = experiment: as above; conditions: 7.5 g per 10 ares, sprayed seven days after sowing, upland soil, 14 days after application; for inhibition at 75 g/ha: Digitaria ciliaris, read-out: weed inhibition rate
Echinochloa crus-galli [6] = experiment: Test Example 3: herbicidal effect test by soil application in upland field; conditions: 120 g per 10 ares, sprayed one day after sowing, 14 days after application; for inhibition at 1200 g/ha: Echinochloa crus-galli, read-out: weed inhibition rate
Procedure, shortened: (§2)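 Weed inhibition (%) was assessed 14 days after treatment, in duplicate per concentration group. Seeds had been mixed into the upper 1 cm of upland alluvial loam, and the soil surface was sprayed one day later with the diluted emulsifiable concentrate at 120 g active ingredient per 10 ares.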

Digitaria ciliaris [7] = experiment: as above; conditions: 120 g per 10 ares, sprayed one day after sowing, 14 days after application; for inhibition at 1200 g/ha: Digitaria ciliaris, read-out: weed inhibition rate
Procedure, shortened: as §2

Digitaria ciliaris [8] = experiment: Test Example 4: herbicidal effect test by stem and leaf treatment in upland field; conditions: 120 g per 10 ares, sprayed seven days after sowing, upland soil, 14 days after application; for inhibition at 1200 g/ha: Digitaria ciliaris, read-out: weed inhibition rate
[9] = system: Echinochloa crus-galli var. formosensis; experiment: Test Example 5: herbicidal effect test by soil application in paddy rice (low dose); conditions: 7.5 g per 10 ares, applied immediately after sowing, flooded pots, 14 days after application; for inhibition at 75 g/ha: Echinochloa crus-galli, soil, 336 h, read-out: weed inhibition rate
Procedure, shortened: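 Flooded-paddy soil application at low dose (7.5 g a.i. per 10 ares), given by dropper as diluted emulsifiable concentrate directly after sowing weeds 0–1 cm deep. Effect evaluated after 14 days in duplicate.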

Scirpus juncoides [10] = experiment: Test Example 1: herbicidal effect test by soil application in paddy rice; conditions: 120 g active ingredient per 10 ares, applied immediately after sowing, flooded pots, 14 days after application; for pest or weed control at 1200 g/ha: Schoenoplectiella juncoides, soil, 336 h, read-out: weed inhibition rate
Procedure, shortened: (§3)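 Treatment: 120 g active ingredient per 10 ares as a water-diluted emulsifiable concentrate, dropped onto flooded pots immediately after sowing. Thirty seeds per species went 0–1 cm into puddled paddy soil with 16:16:16 fertilizer, with ~3 cm flooding maintained in a glass greenhouse.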

[11] = system: Echinochloa crus-galli var. formosensis; experiment: as above; conditions: 120 g active ingredient per 10 ares, applied immediately after sowing, flooded pots, 14 days after application; for pest or weed control at 1200 g/ha: Echinochloa crus-galli, soil, 336 h, read-out: weed inhibition rate
Procedure, shortened: as §3

Echinochloa crus-galli [12] = experiment: Test Example 7: herbicidal effect test by soil application in upland field (low dose); conditions: 7.5 g per 10 ares, sprayed one day after sowing, 14 days after application; for inhibition at 75 g/ha: Echinochloa crus-galli, read-out: weed inhibition rate
Procedure, shortened: (§4)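 Upland soil (alluvial loam) pots, seeds mixed into top 1 cm layer → EC formulation diluted with water, sprayed onto soil 1 d post-sowing, 100 L/10 a → 7.5 g a.i./10 a → inhibition (%) scored at 14 d, n=2.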

Digitaria ciliaris [13] = experiment: as above; conditions: 7.5 g per 10 ares, sprayed one day after sowing, 14 days after application; for inhibition at 75 g/ha: Digitaria ciliaris, read-out: weed inhibition rate
Procedure, shortened: as §4

Echinochloa crus-galli [14] = experiment: Test Example 4: herbicidal effect test by stem and leaf treatment in upland field; conditions: 120 g per 10 ares, sprayed seven days after sowing, upland soil, 14 days after application; for inhibition at 1200 g/ha: Echinochloa crus-galli, read-out: weed inhibition rate

CO[C@H]1C[C@]2(C)O[C@@]1(C(C)C)CC2OCC=C(C)C (mixture of isomers) [1-799, (1R,2S,4S,SR)-1-isopropyl-2-methoxy-4-methyl-5-(3-methylbut-2-enoxy)-7-oxabicyclo[2.2.1]heptane]
≥ 80%: inhibition at 1200 g/ha (Scirpus juncoides [1]) | inhibition at 1200 g/ha [2] | inhibition at 75 g/ha [3] | inhibition at 75 g/ha (Echinochloa crus-galli [4]) | inhibition at 75 g/ha (Digitaria ciliaris [5]) | inhibition at 1200 g/ha (Echinochloa crus-galli [6]) | inhibition at 1200 g/ha (Digitaria ciliaris [7]) | inhibition at 1200 g/ha (Digitaria ciliaris [8]) | inhibition at 75 g/ha [9] | pest or weed control at 1200 g/ha (Scirpus juncoides [10]) | pest or weed control at 1200 g/ha [11] | inhibition at 75 g/ha (Echinochloa crus-galli [12]) | inhibition at 75 g/ha (Digitaria ciliaris [13]) | inhibition at 1200 g/ha (Echinochloa crus-galli [14])

CC(C)[C@]12C[C@@H](OCc3ccccn3)[C@](C)(C[C@@H]1I)O2 [1-785, 2-[[(18,2R,4R,58)-5-iodo-4-isopropyl-1-methyl-7-oxabicyclo[2.2.1]heptan-2-yl]oxymethyl]pyridine]
≥ 80%: weed inhibition rate (Scirpus juncoides [1]) | weed inhibition rate [2] | weed inhibition rate [3] | weed inhibition rate (Echinochloa crus-galli [4]) | weed inhibition rate (Digitaria ciliaris [5]) | weed inhibition rate (Echinochloa crus-galli [6]) | weed inhibition rate (Digitaria ciliaris [7]) | weed inhibition rate (Digitaria ciliaris [8]) | weed inhibition rate [9] | weed inhibition rate (Scirpus juncoides [10]) | weed inhibition rate [11] | weed inhibition rate (Echinochloa crus-galli [12]) | weed inhibition rate (Digitaria ciliaris [13]) | weed inhibition rate (Echinochloa crus-galli [14])

CC(C)C12CC(OCc3ccccc3Cl)C(C)(CC1Cl)O2 (centres unmarked) [1-1292, 5-chloro-2-[(2-chlorophenyl)methoxy]-1-methyl-4-isopropyl-7-oxabicyclo[2.2.1]heptane]
≥ 80%: inhibition at 1200 g/ha (Scirpus juncoides [1]) | inhibition at 1200 g/ha [2] | inhibition at 75 g/ha [3] | inhibition at 75 g/ha (Echinochloa crus-galli [4]) | inhibition at 75 g/ha (Digitaria ciliaris [5]) | inhibition at 1200 g/ha (Echinochloa crus-galli [6]) | inhibition at 1200 g/ha (Digitaria ciliaris [7]) | inhibition at 1200 g/ha (Digitaria ciliaris [8]) | inhibition at 75 g/ha [9] | pest or weed control at 1200 g/ha (Scirpus juncoides [10]) | pest or weed control at 1200 g/ha [11] | inhibition at 75 g/ha (Echinochloa crus-galli [12]) | inhibition at 75 g/ha (Digitaria ciliaris [13]) | inhibition at 1200 g/ha (Echinochloa crus-galli [14])

CC(C)C12CC(OCc3c(F)cccc3F)C(C)(CC1Cl)O2 (centres unmarked) [1-1313, 5-chloro-2-[(2,6-difluorophenyl)methoxy]-1-methyl-4-isopropyl-7-oxabicyclo[2.2.1]heptane]
≥ 80%: inhibition at 1200 g/ha (Scirpus juncoides [1]) | inhibition at 1200 g/ha [2] | inhibition at 75 g/ha [3] | inhibition at 75 g/ha (Echinochloa crus-galli [4]) | inhibition at 75 g/ha (Digitaria ciliaris [5]) | inhibition at 1200 g/ha (Echinochloa crus-galli [6]) | inhibition at 1200 g/ha (Digitaria ciliaris [7]) | inhibition at 1200 g/ha (Digitaria ciliaris [8]) | inhibition at 75 g/ha [9] | pest or weed control at 1200 g/ha (Scirpus juncoides [10]) | pest or weed control at 1200 g/ha [11] | inhibition at 75 g/ha (Echinochloa crus-galli [12]) | inhibition at 75 g/ha (Digitaria ciliaris [13]) | inhibition at 1200 g/ha (Echinochloa crus-galli [14])

CC(C)[C@]12C[C@@H](OCc3c(F)cccc3Cl)[C@](C)(C[C@@H]1Cl)O2 [1-653, (1R,2S,4S,5R)-2-chloro-5-[(2-chloro-6-fluoro-phenyl)methoxy]-1-isopropyl-4-methyl-7-oxabicyclo[2.2.1]heptane]
≥ 80%: inhibition at 1200 g/ha (Scirpus juncoides [1]) | inhibition at 1200 g/ha [2] | inhibition at 75 g/ha [3] | inhibition at 75 g/ha (Echinochloa crus-galli [4]) | inhibition at 75 g/ha (Digitaria ciliaris [5]) | inhibition at 1200 g/ha (Echinochloa crus-galli [6]) | inhibition at 1200 g/ha (Digitaria ciliaris [7]) | inhibition at 1200 g/ha (Digitaria ciliaris [8]) | inhibition at 75 g/ha [9] | pest or weed control at 1200 g/ha (Scirpus juncoides [10]) | pest or weed control at 1200 g/ha [11] | inhibition at 75 g/ha (Echinochloa crus-galli [12]) | inhibition at 75 g/ha (Digitaria ciliaris [13]) | inhibition at 1200 g/ha (Echinochloa crus-galli [14])

CC(C)=CCOC1CC2(C(C)C)OC1(C)CC2Br (centres unmarked) [1-1334, 5-bromo-1-methyl-2-(3-methylbut-2-enoxy)-4-isopropyl-7-oxabicyclo[2.2.1]heptane]
≥ 80%: inhibition at 1200 g/ha (Scirpus juncoides [1]) | inhibition at 1200 g/ha [2] | inhibition at 75 g/ha [3] | inhibition at 75 g/ha (Echinochloa crus-galli [4]) | inhibition at 75 g/ha (Digitaria ciliaris [5]) | inhibition at 1200 g/ha (Echinochloa crus-galli [6]) | inhibition at 1200 g/ha (Digitaria ciliaris [7]) | inhibition at 1200 g/ha (Digitaria ciliaris [8]) | inhibition at 75 g/ha [9] | pest or weed control at 1200 g/ha (Scirpus juncoides [10]) | pest or weed control at 1200 g/ha [11] | inhibition at 75 g/ha (Echinochloa crus-galli [12]) | inhibition at 75 g/ha (Digitaria ciliaris [13]) | inhibition at 1200 g/ha (Echinochloa crus-galli [14])

CC(C)[C@]12C[C@@H](OCc3ccccc3F)[C@](C)(C=C1OS(=O)(=O)C(F)(F)F)O2 (racemic) [3-680]
≥ 80%: weed inhibition rate (Scirpus juncoides [1]) | weed inhibition rate [2] | weed inhibition rate [3] | weed inhibition rate (Echinochloa crus-galli [4]) | weed inhibition rate (Digitaria ciliaris [5]) | weed inhibition rate (Echinochloa crus-galli [6]) | weed inhibition rate (Digitaria ciliaris [7]) | weed inhibition rate (Digitaria ciliaris [8]) | weed inhibition rate [9] | weed inhibition rate (Scirpus juncoides [10]) | weed inhibition rate [11] | weed inhibition rate (Echinochloa crus-galli [12]) | weed inhibition rate (Digitaria ciliaris [13]) | weed inhibition rate (Echinochloa crus-galli [14])

CC(C)C12CC(OCc3c(Cl)cccc3Cl)C(C)(CC1I)O2 (centres unmarked) [1-1447, 5-[(2,6-dichlorophenyl)methoxy]-2-iodo-1-isopropyl-4-methyl-7-oxabicyclo[2.2.1]heptane]
≥ 80%: inhibition at 1200 g/ha (Scirpus juncoides [1]) | inhibition at 1200 g/ha [2] | inhibition at 75 g/ha [3] | inhibition at 75 g/ha (Echinochloa crus-galli [4]) | inhibition at 75 g/ha (Digitaria ciliaris [5]) | inhibition at 1200 g/ha (Echinochloa crus-galli [6]) | inhibition at 1200 g/ha (Digitaria ciliaris [7]) | inhibition at 1200 g/ha (Digitaria ciliaris [8]) | inhibition at 75 g/ha [9] | pest or weed control at 1200 g/ha (Scirpus juncoides [10]) | pest or weed control at 1200 g/ha [11] | inhibition at 75 g/ha (Echinochloa crus-galli [12]) | inhibition at 75 g/ha (Digitaria ciliaris [13]) | inhibition at 1200 g/ha (Echinochloa crus-galli [14])

CC(C)=CCO[C@@H]1C[C@@]2(C(C)C)C=C[C@]1(C)O2 [3-693, (1R,4S,5R)-1-isopropyl-4-methyl-5-(3-methylbut-2-enoxy)-7-oxabicyclo[2.2.1]hept-2-ene]
≥ 80%: inhibition at 1200 g/ha (Scirpus juncoides [1]) | inhibition at 1200 g/ha [2] | inhibition at 75 g/ha [3] | inhibition at 75 g/ha (Echinochloa crus-galli [4]) | inhibition at 75 g/ha (Digitaria ciliaris [5]) | inhibition at 1200 g/ha (Echinochloa crus-galli [6]) | inhibition at 1200 g/ha (Digitaria ciliaris [7]) | inhibition at 1200 g/ha (Digitaria ciliaris [8]) | inhibition at 75 g/ha [9] | pest or weed control at 1200 g/ha (Scirpus juncoides [10]) | pest or weed control at 1200 g/ha [11] | inhibition at 75 g/ha (Echinochloa crus-galli [12]) | inhibition at 75 g/ha (Digitaria ciliaris [13]) | inhibition at 1200 g/ha (Echinochloa crus-galli [14])

COc1ccccc1COC1CC2(C(C)C)OC1(C)CC2I (centres unmarked) [1-1415, 5-iodo-2-[(2-methoxyphenyl)methoxy]-1-methyl-4-isopropyl-7-oxabicyclo[2.2.1]heptane]
≥ 80%: inhibition at 1200 g/ha (Scirpus juncoides [1]) | inhibition at 1200 g/ha [2] | inhibition at 75 g/ha [3] | inhibition at 75 g/ha (Echinochloa crus-galli [4]) | inhibition at 75 g/ha (Digitaria ciliaris [5]) | inhibition at 1200 g/ha (Echinochloa crus-galli [6]) | inhibition at 1200 g/ha (Digitaria ciliaris [7]) | inhibition at 1200 g/ha (Digitaria ciliaris [8]) | inhibition at 75 g/ha [9] | pest or weed control at 1200 g/ha (Scirpus juncoides [10]) | pest or weed control at 1200 g/ha [11] | inhibition at 75 g/ha (Echinochloa crus-galli [12]) | inhibition at 75 g/ha (Digitaria ciliaris [13]) | inhibition at 1200 g/ha (Echinochloa crus-galli [14])
